Holding throughout (type): cell-based
In test [1] the test system is Prevotella nigrescens (JCM6322). The test is described as follows: Growth inhibition activity (MIC, agar) against anaerobic bacteria. The note with it: Prevotella nigrescens, JCM6322, 72 h, strain JCM6322; Trypticase Soy Broth agar, 37 degrees C. for 3 days; read-out: MIC (Minimum Inhibitory Concentration). Here is the method:
(§1) In the present invention, the growth inhibition activity, which is an indicator of the antimicrobial activity, is evaluated by determining the Minimum Inhibitory Concentration (MIC) with an agar or liquid medium.
(§2) In the test for growth inhibition activity, the following strains were used: • Acne bacteria: Propionibacterium acnes (JCM6473) and (ATCC6919) • Abscess bacteria: Bacteroides fragilis (GAI5560) • Cavity-causing bacteria: Streptococcus mutans (JCM5175), Actinomyces naeslundii (JCM8350) and Actinomyces viscosus (JCM8352) • Periodontal pathogen: Fusobacterium nucleatum (JCM6328), Porphyromonas gingivalis (JCM8525), Prevotella nigrescens (JCM6322)
(§3) The test strains were cultured in a GAM medium (Nissui Pharmaceutical Co., LTD), a Schaedler Broth (BBL) or a Trypticase Soy Broth (BBL) liquid medium, and then the grown bacteria were diluted in saline to prepare turbidity 0.5 McFarland of the bacteria fluids for inoculation. The bacteria were cultured at 37 degrees C. for 3 days under an anaerobic condition by using AnaeroPack® from MGC.
(§4) Furthermore, in order to examine the growth inhibition activities against the bacteria by the above cooling agent, the concentration of the cooling agents: (3S)-CA20, (3R)-CA20, CA1, CA5, CA15, CA55 or CA MGH was diluted with ethanol to the required level of concentrations for the determining the Minimum Inhibitory Concentration to produce the sample liquids.
(§5) Next, 100 μL of each sample liquid was added to 10 mL of a Trypticase Soy Broth agar medium solution in a soluble state, and each agar medium solution was poured into a petri dish and solidified, to prepare the test plates. Subsequently, 5 μL of above the bacteria fluids for inoculation were stamped on the test plates, and then the test plates were cultured at 37 degrees C. for 3 days.
(§6) The minimum concentration of the cooling agent in which the growth of bacteria could not be confirmed was considered as the MIC (Minimum Inhibitory Concentration).
as §6

Test [2] has as its system Propionibacterium acnes (JCM6473). The description is as above. The note with it: Cutibacterium acnes, 72 h; strain JCM6473; Trypticase Soy Broth agar, 37 degrees C. for 3 days; read-out: MIC (Minimum Inhibitory Concentration). The protocol: as §1, §2, §3, §4, §5, §6, §6
For test [3], the system named is Fusobacterium nucleatum (JCM6328). The description is as above. The note with it: 72 h, strain JCM6328, Trypticase Soy Broth agar, 37 degrees C. for 3 days, read-out: MIC (Minimum Inhibitory Concentration). The protocol: as §1, §2, §3, §4, §5, §6, §6
Test [4] relates to Actinomyces viscosus (JCM8352). Described as above. Particulars: Actinomyces viscosus, 72 h; strain JCM8352; Trypticase Soy Broth agar, 37 degrees C. for 3 days; read-out: MIC (Minimum Inhibitory Concentration). Here is the method: as §1, §2, §3, §4, §5, §6, §6
Test [5] relates to Propionibacterium acnes (ATCC6919). The description is as above. Particulars: Cutibacterium acnes, ATCC6919, 72 h, strain ATCC6919; Trypticase Soy Broth agar, 37 degrees C. for 3 days; read-out: MIC (Minimum Inhibitory Concentration). The protocol:
as §1, §2, §3, §4, §5, §6, §6

Test [6] has as its system Bacteroides fragilis (GAI5560). Described as above. Particulars: Bacteroides fragilis, 72 h; strain GAI5560; Trypticase Soy Broth agar, 37 degrees C. for 3 days; read-out: MIC (Minimum Inhibitory Concentration). Here is the method:
as §1, §2, §3, §4, §5, §6, §6

For test [7], the system named is Streptococcus mutans (JCM5175). The test is described as above. Particulars: Streptococcus mutans, 72 h; strain JCM5175; Trypticase Soy Broth agar, 37 degrees C. for 3 days; read-out: MIC (Minimum Inhibitory Concentration). The protocol: as §1, §2, §3, §4, §5, §6, §6
In test [8] the test system is Bacillus subtilis (NBRC3134). The test is described as follows: Growth inhibition activity (MIC, agar) against aerobic bacteria. Particulars: Bacillus subtilis; strain NBRC3134; Mueller Hinton Agar, 37 degrees C. overnight; read-out: MIC (Minimum Inhibitory Concentration). The protocol:
as §1
(§7) Furthermore, the following bacteria were also used as other general aerobic bacteria: • Escherichia coli: Escherichia coli (NBRC3972) • Pseudomonas aeruginosa: Pseudomonas aeruginosa (NBRC13275) • Bacteria in intestines: Proteus vulgaris (NBRC3167) • Pneumobacillus: Klebsiella pneumoniae (NBRC13277) • Bacillus subtilis: Bacillus subtilis (NBRC3134)
(§8) The test strains were cultured in the liquid medium which the Bioresource center recommends, and then the test strains were subcultured to a Mueller Hinton Broth (Difco) at 30 degrees C. The grown bacteria were diluted to 10^6 CFU/ml with saline to adjust the bacteria fluids for inoculation.
(§9) Furthermore, in order to examine the growth inhibition activities against the bacteria by the above cooling agents, the concentration of the cooling agents: (3S)-CA20, (3R)-CA20, CA1, CA5, CA15, CA55 or CA MGH was diluted with ethanol to the required level of concentration for the determining the Minimum Inhibitory Concentration to produce the sample liquids.
(§10) Next, 100 μL of each sample liquid was added to 10 mL of a Mueller Hinton Agar (Difco) agar medium solution in a soluble state, and each agar medium solution was poured into a petri dish and solidified to prepare test plates having several concentrations of the sample liquids (several concentrations of the above cooling agents). Subsequently, 5 μL of the above bacteria fluids for inoculation were stamped on the test plates, and then the test plates were cultured at 37 degrees C. overnight.
(§11) In this way, the growth inhibition activities by (3S)-CA20, (3R)-CA20, CA1, CA5, CA15, CA55, CA MGH were examined. The minimum concentration of the cooling agent in which the growth of bacteria could not be confirmed was considered as the MIC (Minimum Inhibitory Concentration).
(§12) The minimum concentration of the cooling agent in which the grown strain could not be confirmed was considered as the MIC (Minimum Inhibitory Concentration).

In test [9] the test system is Klebsiella pneumoniae (NBRC13277). The test is described as above. Particulars: Klebsiella pneumoniae; strain NBRC13277; Mueller Hinton Agar, 37 degrees C. overnight; read-out: MIC (Minimum Inhibitory Concentration). Here is the method: as §1, §7, §8, §9, §10, §11, §12
Test [10] deals with Pseudomonas aeruginosa (NBRC13275). The description is as above. Particulars: Pseudomonas aeruginosa; strain NBRC13275; Mueller Hinton Agar, 37 degrees C. overnight; read-out: MIC (Minimum Inhibitory Concentration). The protocol: as §1, §7, §8, §9, §10, §11, §12
Test [11] concerns Escherichia coli (NBRC3972). Described as above. The note with it: Escherichia coli; strain NBRC3972; Mueller Hinton Agar, 37 degrees C. overnight; read-out: MIC (Minimum Inhibitory Concentration). Here is the method:
as §1, §7, §8, §9, §10, §11, §12

Test [12] has as its system Proteus vulgaris (NBRC3167). The description is as above. Particulars: Proteus vulgaris; strain NBRC3167; Mueller Hinton Agar, 37 degrees C. overnight; read-out: MIC (Minimum Inhibitory Concentration). The protocol:
as §1, §7, §8, §9, §10, §11, §12

The structures appear in SMILES notation. In brackets after ≈: the same amount, converted by molar mass.

For `CC1CCC(C(C)(C)O)C(O)C1` (stereo not shown) [CA38, p-menthane-3,8-diol, reference compound], the MIC was 1600 µg/mL (≈ 9.29 mM) in [1]; above 1600 µg/mL in [2]; above 1600 µg/mL in test [3]; above 1600 µg/mL in test [4]; above 1600 µg/mL in test [5]; 1600 µg/mL (≈ 9.29 mM) in test [6]. Also, the MIC in test [7] is above 1600 µg/mL; in test [8], 800 µg/mL (≈ 4.64 mM); in [9], above 1600 µg/mL; in test [10], above 1600 µg/mL; in [11], above 1600 µg/mL; in test [12], above 1600 µg/mL.

Regarding `CC1CCC(C(C)C)C(OCCOCCO)C1` (stereo not shown) [CA55, 2-(2-menthoxyethoxy)ethanol], the MIC came out at 100 µg/mL (≈ 0.409 mM) in test [1]; 800 µg/mL (≈ 3.27 mM) in [2]; 800 µg/mL (≈ 3.27 mM) in test [3]; 800 µg/mL (≈ 3.27 mM) in test [4]; 800 µg/mL (≈ 3.27 mM) in test [5]; 100 µg/mL (≈ 0.409 mM) in test [6]. The MIC in test [7] was 800 µg/mL (≈ 3.27 mM); in test [8], 800 µg/mL (≈ 3.27 mM); in test [9], 800 µg/mL (≈ 3.27 mM); in test [10], above 1600 µg/mL; in test [11], above 1600 µg/mL; in test [12], above 1600 µg/mL.

Turning to `CC1CCC(C(C)C)C(OC(=O)C=O)C1` (stereo not shown) [CA MGH, menthyl glyoxylate], the MIC in test [2] is 200 µg/mL (≈ 0.942 mM); in test [3], 100 µg/mL (≈ 0.471 mM); in test [4] it was 200 µg/mL (≈ 0.942 mM); in test [5] it was 100 µg/mL (≈ 0.471 mM); in test [6], 50 µg/mL (≈ 0.236 mM); in test [7], 100 µg/mL (≈ 0.471 mM). The MIC in test [8] came out at 50 µg/mL (≈ 0.236 mM); in [9], 50 µg/mL (≈ 0.236 mM); in test [10], 800 µg/mL (≈ 3.77 mM); in [11] it was 800 µg/mL (≈ 3.77 mM); in [12], 100 µg/mL (≈ 0.471 mM).

Consider `CNC(=O)C(C)(C(C)C)C(C)C` [WS-23, N-methyl-2-isopropyl-2,3-dimethylbutanamide, reference compound], for which the MIC in test [1], in test [2], in test [4], in [5], in test [6] and in [7] was above 1600 µg/mL throughout. Further, the MIC in test [8], in [9], in [10], in [11] and in [12] was above 1600 µg/mL throughout.

For the compound `CC1CCC(C(C)C)C(O)C1` (stereo not drawn) [l-menthol, menthol, reference compound], the MIC in test [1], in [2], in [3], in test [4], in test [5] and in test [6] was 1600 µg/mL (≈ 10.2 mM) in each case. In addition, the MIC in test [7] is above 1600 µg/mL; in test [8], 1600 µg/mL (≈ 10.2 mM); in [9], 1600 µg/mL (≈ 10.2 mM); in test [10] it was above 1600 µg/mL; in test [11] it was 1600 µg/mL (≈ 10.2 mM); in [12], 1600 µg/mL (≈ 10.2 mM).
